In patent US12286428B2 (BRISTOL-MYERS SQUIBB COMPANY, priority 2019, dated 2025):

Assays:
[1] = target: T1, IRAK4 (Homo sapiens, UniProt Q9NWZ3); experiment: IRAK4 Inhibition Assay; type: biochemical; conditions: ATP 500 μM, IRAK4 0.6 nM, 60 min room temperature, Caliper LABCHIP 3000
T1 sequence (Q9NWZ3 1-460): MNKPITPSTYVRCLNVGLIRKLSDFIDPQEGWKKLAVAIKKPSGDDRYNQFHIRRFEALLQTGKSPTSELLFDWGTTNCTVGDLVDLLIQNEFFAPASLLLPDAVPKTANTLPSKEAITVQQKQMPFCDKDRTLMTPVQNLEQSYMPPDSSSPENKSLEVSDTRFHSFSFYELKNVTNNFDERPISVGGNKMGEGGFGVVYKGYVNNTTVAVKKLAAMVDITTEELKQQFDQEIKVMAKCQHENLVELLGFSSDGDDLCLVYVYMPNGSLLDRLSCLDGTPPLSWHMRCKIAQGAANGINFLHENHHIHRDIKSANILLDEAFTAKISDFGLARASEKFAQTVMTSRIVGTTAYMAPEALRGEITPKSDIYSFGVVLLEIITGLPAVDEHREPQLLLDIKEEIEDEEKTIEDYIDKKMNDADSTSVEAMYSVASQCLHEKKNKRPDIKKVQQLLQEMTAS
Description: The assays were performed in U-bottom 384-well plates. […] The reaction was initiated by the combination of IRAK4 with substrates and test compounds. The reaction mixture was incubated at room temperature for 60 min. and terminated by adding 45 μL of 35 mM EDTA to each sample. The reaction mixture was analyzed on the Caliper LABCHIP® 3000 (Caliper, Hopkinton, MA) by electrophoretic separation of the fluorescent substrate and phosphorylated product. […] The final concentrations of reagents in the assays are ATP, 500 μM; FL-[…] peptide 1.5 μM; IRAK4, 0.6 nM; and DMSO, 1.6%.

[2] = system: Human whole blood, IL-6 levels after TLR2 agonist lipoteichoic acid; experiment: IRAK4 Whole Blood Assay; type: cell-based; conditions: compounds 60 minutes at 37° C., lipoteichoic acid 10 μg/mL for 5 hours
Description: IRAK4 Whole Blood Assay Human whole blood containing the anti-coagulant ACD-A was plated in 384-well plate (25 μL/well) and incubated with compounds for 60 minutes at 37° C. in a 5% CO2 incubator. The blood was stimulated with a TLR2 agonist, 10 μg/mL final concentration of lipoteichoic acid (Invivogen, San Diego, CA) in 25 μL RPMI (Gibco) for 5 hours in a 5% CO2 incubator. At the end of the incubation, plates were centrifuged at 2300 rpm for 5 minutes. Supernatants were harvested and analyzed for IL-6 levels by Flow Cytometry beads assay (BD Biosciences, San Jose, CA).

[3] = FL-IPTSPITTTYFFFKKK peptide […]

Row | SMILES | IC50 [1, 3] [nM] | IC50 [2] [nM] | IC50 ([1]; FL-[…] peptide 1.5 μM) [nM]
1 | CC[C@@H]1CC(=O)N[C@@H]1COc1nccc2cc(C(N)=O)c3nc(C)cn3c12 [Example 18, 1-(((2S,3R)-3-ethyl-5-oxopyrrolidin-2-yl)methoxy)-8-methylimidazo[1,2-a][1,7]naphthyridine-6-carboxamide] | 19.7 | 20000 | 
2 | CC[C@H]1[C@@H](COc2nccc3cc(C(N)=O)c4nccn4c23)NC(=O)C1(F)F [Example 20, 1-(((2S,3S)-3-ethyl-4,4-difluoro-5-oxopyrrolidin-2-yl)methoxy)imidazo[1,2-a][1,7]naphthyridine-6-carboxamide] | 8.8 | 158 | 
3 | CC[C@H]1[C@@H](COc2nccc3cc(C(N)=O)c4nc(C)cn4c23)NC(=O)C1(F)F [Example 21, 1-(((2S,3S)-3-ethyl-4,4-difluoro-5-oxopyrrolidin-2-yl)methoxy)-8-methylimidazo[1,2-a][1,7]naphthyridine-6-carboxamide] | 10.7 | 533 | 
4 | CC[C@@H]1CC(=O)N[C@@H]1COc1cccc2cc(C(N)=O)n3nccc3c12 [Example 35, 10-(((2S,3R)-3-ethyl-5-oxopyrrolidin-2-yl)methoxy)pyrazolo[5,1-a]isoquinoline-5-carboxamide] | 2.6 | 1650 | 
5 | CC[C@@H]1[C@H](F)C(=O)N[C@@H]1COc1nccc2cc(C(N)=O)n3nccc3c12 [Example 36, 1-(((2S,3S,4S)-3-ethyl-4-fluoro-5-oxopyrrolidin-2-yl)methoxy)pyrazolo[5,1-a][2,7]naphthyridine-6-carboxamide] | 0.7 | 159 | 
6 | CC[C@@H]1CC(=O)N[C@@H]1COc1cccc2cc(C(N)=O)c3nnnn3c12 [Example 44, 9-(((2S,3R)-3-ethyl-5-oxopyrrolidin-2-yl)methoxy)tetrazolo[1,5-a]quinoline-4-carboxamide] | 9.6 | 1030 | 
7 | CC[C@@H]1CC(=O)N[C@@H]1COc1nccc2cc(C(N)=O)c3ncnn3c12 [Example 46, 9-(((2S,3R)-3-ethyl-5-oxopyrrolidin-2-yl)methoxy)-[1,2,4]triazolo[1,5-a][1,7]naphthyridine-4-carboxamide] |  | 1080 | 9.7
8 | CC[C@H]1[C@@H](COc2nccc3cc(C(N)=O)c4ncnn4c23)NC(=O)C1(F)F [Example 48, 9-(((2S,3S)-3-ethyl-4,4-difluoro-5-oxopyrrolidin-2-yl)methoxy)-[1,2,4]triazolo[1,5-a][1,7]naphthyridine-4-carboxamide] | 16.9 | 2250 | 
9 | CC[C@@H]1CC(=O)N[C@@H]1COc1nccc2cc(C(N)=O)c3nc(C)nn3c12 [Example 49, 9-(((2S,3R)-3-ethyl-5-oxopyrrolidin-2-yl)methoxy)-2-methyl-[1,2,4]triazolo[1,5-a][1,7]naphthyridine-4-carboxamide] | 29.1 | 2020 | 
10 | CC[C@@H]1CC(=O)N[C@@H]1COc1nccc2cc(C(N)=O)c3c(c12)CCO3 [Example 54, 1-(((2S,3R)-3-ethyl-5-oxopyrrolidin-2-yl)methoxy)-8,9-dihydrofuro[2,3-h]isoquinoline-6-carboxamide] | 13.6 | 1100 | 
11 | CC[C@@H]1CC(=O)N[C@@H]1COc1nccc2cc(C(N)=O)c3ncccc3c12 [Example 55, 1-(((2S,3R)-3-ethyl-5-oxopyrrolidin-2-yl)methoxy)-2,7-phenanthroline-6-carboxamide] | 15.3 | 879 | 

Second part, the compound after the results:

Row | IC50 [1, 3] [nM] | IC50 [2] [nM] | IC50 ([1]; FL-[…] peptide 1.5 μM) [nM] | SMILES
12 | 1.3 | 280 |  | CC[C@@H]1[C@H](F)C(=O)N[C@@H]1COc1cccc2cc(C(N)=O)c3nccn3c12 [Example 5, 9-(((2S,3S,4S)-3-ethyl-4-fluoro-5-oxopyrrolidin-2-yl)methoxy)imidazo[1,2-a]quinoline-4-carboxamide]
13 | 1.9 | 1390 |  | CC[C@H]1[C@@H](COc2cccc3cc(C(N)=O)c4nccn4c23)NC(=O)C1(F)F [Example 10, 9-(((2S,3S)-3-ethyl-4,4-difluoro-5-oxopyrrolidin-2-yl)methoxy)imidazo[1,2-a]quinoline-4-carboxamide]
14 | 3.4 | 3460 |  | CC[C@@H]1CC(=O)N[C@@H]1COc1cccc2cc(C(N)=O)c3nc(C)cn3c12 [Example 11, 9-(((2S,3R)-3-ethyl-5-oxopyrrolidin-2-yl)methoxy)-2-methylimidazo[1,2-a]quinoline-4-carboxamide]
15 | 2.2 | 10000 |  | CC[C@@H]1[C@H](F)C(=O)N[C@@H]1COc1cccc2cc(C(N)=O)c3nc(C)cn3c12 [Example 12, 9-(((2S,3S,4S)-3-ethyl-4-fluoro-5-oxopyrrolidin-2-yl)methoxy)-2-methylimidazo[1,2-a]quinoline-4-carboxamide]
16 | 1 | 557 |  | CC[C@@H]1CC(=O)N[C@@H]1COc1ccc(F)c2cc(C(N)=O)c3nccn3c12 [Example 14, 9-(((2S,3R)-3-ethyl-5-oxopyrrolidin-2-yl)methoxy)-6-fluoroimidazo[1,2-a]quinoline-4-carboxamide]
17 | 8.2 | 2650 |  | CC[C@@H]1[C@H](F)C(=O)N[C@@H]1COc1ccc(F)c2cc(C(N)=O)c3nccn3c12 [Example 15, 9-(((2S,3S,4S)-3-ethyl-4-fluoro-5-oxopyrrolidin-2-yl)methoxy)-6-fluoroimidazo[1,2-a]quinoline-4-carboxamide]
18 | 11 | 1520 |  | CC[C@@H]1CC(=O)N[C@@H]1COc1nccc2cc(C(N)=O)c3nccn3c12 [Example 16, 1-(((2S,3R)-3-ethyl-5-oxopyrrolidin-2-yl)methoxy)imidazo[1,2-a][1,7]naphthyridine-6-carboxamide]
19 | 4.7 | 94 |  | CC[C@@H]1[C@H](F)C(=O)N[C@@H]1COc1nccc2cc(C(N)=O)c3nccn3c12 [Example 17, 1-(((2S,3S,4S)-3-ethyl-4-fluoro-5-oxopyrrolidin-2-yl)methoxy)imidazo[1,2-a][1,7]naphthyridine-6-carboxamide]
20 | 3.2 | 485 |  | CC[C@@H]1[C@H](F)C(=O)N[C@@H]1COc1nccc2cc(C(N)=O)c3nc(C)cn3c12 [Example 19, 1-(((2S,3S,4S)-3-ethyl-4-fluoro-5-oxopyrrolidin-2-yl)methoxy)-8-methylimidazo[1,2-a][1,7]naphthyridine-6-carboxamide]
21 | 2.1 | 4780 |  | CC[C@@H]1OC(=O)N[C@@H]1COc1nccc2cc(C(N)=O)c3nccn3c12 [Example 22, 1-(((4R,5S)-5-ethyl-2-oxooxazolidin-4-yl)methoxy)imidazo[1,2-a][1,7]naphthyridine-6-carboxamide]
22 | 0.9 | 279 |  | CC[C@@H]1[C@H](F)C(=O)N[C@@H]1COc1cccc2cc(C(N)=O)n3nccc3c12 [Example 34, 10-(((2S,3S,4S)-3-ethyl-4-fluoro-5-oxopyrrolidin-2-yl)methoxy)pyrazolo[5,1-a]isoquinoline-5-carboxamide]
23 | 3.4 | 586 |  | CC[C@@H]1CC(=O)N[C@@H]1COc1cccc2cc(C(N)=O)c3ncnn3c12 [Example 37, 9-(((2S,3R)-3-ethyl-5-oxopyrrolidin-2-yl)methoxy)-[1,2,4]triazolo[1,5-a]quinoline-4-carboxamide]
24 | 15.9 | 78 |  | CC[C@H]1[C@@H](COc2cccc3cc(C(N)=O)c4ncnn4c23)NC(=O)C1(F)F [Example 39, 9-(((2S,3S)-3-ethyl-4,4-difluoro-5-oxopyrrolidin-2-yl)methoxy)-[1,2,4]triazolo[1,5-a]quinoline-4-carboxamide]
